One assay concerns the target T1, human HIF-PHD3 (Homo sapiens, UniProt Q9H6Z9).
T1 construct: purchased CrystalGenomics Ltd
The experiment in a line: HIF-PHD inhibition assay (fluorescence polarization), human HIF-PHD3. The format is biochemical. Conditions: 2-oxoglutaric acid 166 μmol/L. As for the experimental part: (§1) The activity of the test compound to inhibit human HIF-PHD2 and human HIF-PHD3 was determined.
(§2) The value of enzyme activity was calculated by subtracting the value of fluorescence polarization before addition of the enzyme from the value of fluorescence polarization after addition of enzyme (mP value).
(§3) FAM: 5′-fluoresceinamide ACA: aminocaproic acid

Another assay deals with T2, human HIF-PHD2 (Homo sapiens, UniProt Q9GZT9).
T2 construct: purchased CrystalGenomics Ltd
The experiment in a line: HIF-PHD inhibition assay (fluorescence polarization), human HIF-PHD2. The format is biochemical. Conditions: 2-oxoglutaric acid 3.33 μmol/L. As for the experimental part:
as §1, §2, §3

Counter-ions that a name gives are not always drawn.

T1 sequence (Q9H6Z9 whole entry): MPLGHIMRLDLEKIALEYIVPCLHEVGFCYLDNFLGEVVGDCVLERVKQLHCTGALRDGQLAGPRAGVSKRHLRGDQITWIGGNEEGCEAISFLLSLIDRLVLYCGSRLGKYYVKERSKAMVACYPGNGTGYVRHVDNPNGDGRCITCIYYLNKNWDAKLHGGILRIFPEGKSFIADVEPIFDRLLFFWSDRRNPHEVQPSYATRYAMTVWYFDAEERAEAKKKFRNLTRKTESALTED
T2 sequence (Q9GZT9 2-426 limits assumed): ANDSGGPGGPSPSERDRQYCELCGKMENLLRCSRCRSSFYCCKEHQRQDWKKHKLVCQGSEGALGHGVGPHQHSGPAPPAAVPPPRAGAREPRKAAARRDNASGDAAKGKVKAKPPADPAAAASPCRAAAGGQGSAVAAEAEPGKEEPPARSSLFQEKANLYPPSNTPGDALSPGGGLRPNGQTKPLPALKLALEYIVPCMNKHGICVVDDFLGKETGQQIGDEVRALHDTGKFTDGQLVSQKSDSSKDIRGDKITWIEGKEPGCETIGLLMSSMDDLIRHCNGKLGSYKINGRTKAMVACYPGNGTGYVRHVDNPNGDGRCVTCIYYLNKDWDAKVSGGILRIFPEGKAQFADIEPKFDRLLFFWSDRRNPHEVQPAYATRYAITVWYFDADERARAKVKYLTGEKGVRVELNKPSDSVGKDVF

Consider `Cc1cccc([C@H](C)n2ncc3nc(-n4cc(C(=O)O)cn4)nc(O)c32)c1` [Example 262], for which the results for the IC50 at human HIF-PHD3 and on human HIF-PHD2 were 360 nM and 29 nM, respectively.

Consider `O=C(O)c1cnn(-c2nc(O)c3c(cnn3C[C@@H]3CCN(c4ccc(C(F)(F)F)cc4)C3)n2)c1` [Example 426], for which the IC50 against human HIF-PHD3 stood at 140 nM; against human HIF-PHD2 it was 15 nM.

In the case of `C[C@@H](c1ccccc1Cl)n1ncc2nc(-n3cc(C(=O)O)cn3)nc(O)c21` [Example 257], the half-inhibitory concentration (IC50) at human HIF-PHD3 amounted to 870 nM; on human HIF-PHD2 it was 200 nM.

For `O=C(O)c1cnn(-c2nc(O)c3c(cnn3CCCOc3ccc4c(c3)CCC4)n2)c1` [Example 195], the IC50 against human HIF-PHD3 is 460 nM; at human HIF-PHD2, 22 nM.

Consider `Cc1nn([C@@H](C)c2ccc(F)cc2)c2c(O)nc(-n3cc(C(=O)O)cn3)nc12` [Example 448], for which the concentration for half-maximal inhibition (IC50) on human HIF-PHD3 amounted to 1900 nM; against human HIF-PHD2 it was 62 nM.

As to `C[C@@H](c1ccc(F)cc1Cl)n1ncc2nc(-n3cc(C(=O)O)cn3)nc(O)c21` [Example 252], the IC50 on human HIF-PHD3 was found to be 630 nM; against human HIF-PHD2 it was 99 nM.

For the compound `Cc1nn(CC2CCCC2)c2c(O)nc(-n3cc(C(=O)O)cn3)nc12` [Example 229], the half-maximal inhibitory concentration (IC50) is 2800 nM against human HIF-PHD3 and 50 nM against human HIF-PHD2.

Regarding `CCc1nn(CC2CCCCC2)c2c(O)nc(-n3cc(C(=O)O)cn3)nc12` [Example 232], the IC50 was 1400 nM against human HIF-PHD3 and 150 nM on human HIF-PHD2.

Consider `COc1ccc([C@H](C)n2ncc3nc(-n4cc(C(=O)O)cn4)nc(O)c32)cc1` [Example 260], for which the IC50 at human HIF-PHD3 came out at 950 nM; against human HIF-PHD2, 48 nM.

As for `Cc1ccc(C(C)n2ncc3nc(-n4cc(C(=O)O)cn4)nc(O)c32)cc1` (stereo not drawn) [Example 291], the IC50 at human HIF-PHD3 was found to be 730 nM; against human HIF-PHD2, 72 nM.

With `CC1CCCC(n2ncc3nc(-n4cc(C(=O)O)cn4)nc(O)c32)C1` (stereo not drawn) [Example 398], the half-maximal inhibitory concentration (IC50) is 1400 nM at human HIF-PHD3 and 52 nM against human HIF-PHD2.

For the compound `O=C(O)c1cnn(-c2nc(O)c3c(cnn3Cc3cccc4ccccc34)n2)c1` [Example 28], the results for the IC50 at human HIF-PHD3 and against human HIF-PHD2 were 360 nM and 35 nM, respectively.

Consider `C[C@@H](c1ccc(C(F)(F)F)cc1)n1nc(C(F)(F)F)c2nc(-n3cc(C(=O)O)cn3)nc(O)c21` [Example 463], for which the values for the IC50 against human HIF-PHD3 and at human HIF-PHD2 were 930 nM and 65 nM, respectively.

On to `O=C(O)c1cnn(-c2nc(O)c3c(cnn3C(c3cc(F)cc(F)c3)C3CC3)n2)c1` (single isomer, unassigned) [Example 373], for which the concentration for half-maximal inhibition (IC50) against human HIF-PHD3 was determined as 650 nM; on human HIF-PHD2, 36 nM.

Consider `CC1(C)CCCC1n1ncc2nc(-n3cc(C(=O)O)cn3)nc(O)c21` (stereo not drawn) [Example 417], for which the IC50 came out at 1300 nM against human HIF-PHD3 and 70 nM against human HIF-PHD2.

On to `CCC(c1ccc(F)c(F)c1)n1ncc2nc(-n3cc(C(=O)O)cn3)nc(O)c21` (stereo not drawn) [Example 330], for which the 50% inhibitory concentration (IC50) came out at 580 nM against human HIF-PHD3 and 36 nM on human HIF-PHD2.

For the compound `C[C@@H](c1ccc(F)c(F)c1)n1ncc2nc(-n3cc(C(=O)O)cn3)nc(O)c21` [Example 251], the IC50 turned out to be 470 nM against human HIF-PHD3 and 55 nM against human HIF-PHD2.

As for `Cc1ccc(F)cc1[C@H](C)n1ncc2nc(-n3cc(C(=O)O)cn3)nc(O)c21` [Example 287], the concentration for half-maximal inhibition (IC50) against human HIF-PHD3 came out at 840 nM; at human HIF-PHD2 it was 48 nM.

With `C[C@@H](c1ccc(C(F)(F)F)c(F)c1)n1ncc2nc(-n3cc(C(=O)O)cn3)nc(O)c21` [Example 281], the results for the IC50 against human HIF-PHD3 and against human HIF-PHD2 were 450 nM and 20 nM, respectively.

Turning to `C[C@@H]1C[C@H](C)C[C@@H](n2ncc3nc(-n4cc(C(=O)O)cn4)nc(O)c32)C1` [Example 402], the IC50 came to 710 nM against human HIF-PHD3 and 24 nM against human HIF-PHD2.

In the case of `C[C@@H](c1ccc(OC(F)(F)F)cc1)n1ncc2nc(-n3cc(C(=O)O)cn3)nc(O)c21` [Example 276], the concentration for half-maximal inhibition (IC50) at human HIF-PHD3 is 380 nM; against human HIF-PHD2, 15 nM.

On to `C[C@@H](c1ccc2c(c1)CCC2)n1ncc2nc(-n3cc(C(=O)O)cn3)nc(O)c21` [Example 289], for which the values for the IC50 on human HIF-PHD3 and against human HIF-PHD2 were 210 nM and 30 nM, respectively.

In the case of `CC[C@@H](c1ccc(Cl)c(Cl)c1)n1ncc2nc(-n3cc(C(=O)O)cn3)nc(O)c21` [Example 336], the IC50 turned out to be 170 nM against human HIF-PHD3 and 23 nM on human HIF-PHD2.

Turning to `C[C@@H](C1CCN(c2ccc(Cl)cc2)CC1)n1ncc2nc(-n3cc(C(=O)O)cn3)nc(O)c21` [Example 432], the IC50 was 270 nM at human HIF-PHD3 and 17 nM at human HIF-PHD2.

For the compound `C[C@H](c1cc(Cl)cc(C(F)(F)F)c1)n1ncc2nc(-n3cc(C(=O)O)cn3)nc(O)c21` [Example 268], the values for the half-inhibitory concentration (IC50) on human HIF-PHD3 and on human HIF-PHD2 were 890 nM and 100 nM, respectively.

On to `CC[C@@H](c1ccc(OC(F)(F)F)c(Cl)c1)n1ncc2nc(-n3cc(C(=O)O)cn3)nc(O)c21` [Example 353], for which the half-inhibitory concentration (IC50) against human HIF-PHD3 came out at 490 nM; against human HIF-PHD2, 14 nM.

As for `C[C@@H](c1ccc(OC(F)(F)F)c(Cl)c1)n1ncc2nc(-n3cc(C(=O)O)cn3)nc(O)c21` [Example 318], the IC50 is 290 nM on human HIF-PHD3 and 16 nM against human HIF-PHD2.

On to `CCC(c1ccc(Cl)cc1F)n1ncc2nc(-n3cc(C(=O)O)cn3)nc(O)c21` (stereo not drawn) [Example 350], for which the 50% inhibitory concentration (IC50) was found to be 530 nM against human HIF-PHD3 and 49 nM on human HIF-PHD2.

As to `CC(C)[C@H]1CC[C@H](n2ncc3nc(-n4cc(C(=O)O)cn4)nc(O)c32)CC1` [Example 389], the figures for the IC50 on human HIF-PHD3 and against human HIF-PHD2 were 790 nM and 76 nM, respectively.

For `CCC(c1ccc(Cl)c(C)c1)n1ncc2nc(-n3cc(C(=O)O)cn3)nc(O)c21` (single isomer, unassigned) [Example 347], the IC50 against human HIF-PHD3 stood at 400 nM; against human HIF-PHD2, 38 nM.

Regarding `Cc1cc(Cl)cc([C@H](C)n2ncc3nc(-n4cc(C(=O)O)cn4)nc(O)c32)c1` [Example 267], the values for the IC50 against human HIF-PHD3 and on human HIF-PHD2 were 530 nM and 86 nM, respectively.

Regarding `O=C(O)c1cnn(-c2nc(O)c3nn(CC4(COc5ccc6c(c5)CCCC6)CC4)cc3n2)c1` [Example 249], the IC50 is 280 nM on human HIF-PHD3 and 26 nM on human HIF-PHD2.

Regarding `Cc1cccc(OCCCn2ncc3nc(-n4cc(C(=O)O)cn4)nc(O)c32)c1C` [Example 180], the IC50 is 170 nM at human HIF-PHD3 and 19 nM against human HIF-PHD2.

For the compound `O=C(O)c1cnn(-c2nc(O)c3c(cnn3C(c3cccc(Cl)c3)C3CC3)n2)c1` (single isomer, unassigned) [Example 375], the values for the concentration for half-maximal inhibition (IC50) on human HIF-PHD3 and against human HIF-PHD2 were 500 nM and 52 nM, respectively.

Consider `C[C@@H](c1ccc(OC(F)(F)F)c(F)c1)n1ncc2nc(-n3cc(C(=O)O)cn3)nc(O)c21` [Example 317], for which the results for the IC50 on human HIF-PHD3 and on human HIF-PHD2 were 520 nM and 19 nM, respectively.

Regarding `Cn1nc(Cc2ccccc2)c2nc(-n3cc(C(=O)O)cn3)nc(O)c21` [Example 503], the 50% inhibitory concentration (IC50) against human HIF-PHD3 is > 3000 nM; against human HIF-PHD2, > 300 nM.

Take `CC(c1cc(F)cc(Cl)c1)n1ncc2nc(-n3cc(C(=O)O)cn3)nc(O)c21` (stereo not drawn) [Example 305]: the IC50 on human HIF-PHD3 came to 590 nM; at human HIF-PHD2, 59 nM.

As for `O=C(O)c1cnn(-c2nc(O)c3c(cnn3Cc3ccc(N4CCC(C(F)(F)F)CC4)cc3)n2)c1` [Example 422], the half-maximal inhibitory concentration (IC50) stood at 420 nM against human HIF-PHD3 and 38 nM against human HIF-PHD2.

`C[C@@H](c1cc(F)ccc1F)n1nc(C2CC2)c2nc(-n3cc(C(=O)O)cn3)nc(O)c21` [Example 461]: the half-maximal inhibitory concentration (IC50) on human HIF-PHD3 was determined as 1600 nM; at human HIF-PHD2, 230 nM.

For the compound `C[C@@H](C1CCN(c2cccc(Cl)c2)CC1)n1ncc2nc(-n3cc(C(=O)O)cn3)nc(O)c21` [Example 435], the half-inhibitory concentration (IC50) turned out to be 170 nM against human HIF-PHD3 and 15 nM against human HIF-PHD2.

Consider `O=C(O)c1cnn(-c2nc(O)c3c(cnn3CC3CCN(Cc4ccc(F)cc4)CC3)n2)c1` [Example 2, 1-(1-{[1-(4-fluorobenzyl)piperidin-4-yl]methyl}-7-hydroxy-1H-pyrazolo[4,3-d]pyrimidin-5-yl)-1H-pyrazole-4-carboxylic acid hydrochloride], for which the results for the IC50 at human HIF-PHD3 and at human HIF-PHD2 were 1100 nM and 84 nM, respectively.

Regarding `COc1cccc(OCCCn2ncc3nc(-n4cc(C(=O)O)cn4)nc(O)c32)c1` [Example 186], the results for the 50% inhibitory concentration (IC50) against human HIF-PHD3 and against human HIF-PHD2 were 430 nM and 20 nM, respectively.

In the case of `CC1CCCC(n2ncc3nc(-n4cc(C(=O)O)cn4)nc(O)c32)C1` (single isomer, unassigned) [Example 399], the figures for the 50% inhibitory concentration (IC50) at human HIF-PHD3 and at human HIF-PHD2 were 590 nM and 54 nM, respectively.

For the compound `Cc1ccc(C(C)n2ncc3nc(-n4cc(C(=O)O)cn4)nc(O)c32)cc1Cl` (single isomer, unassigned) [Example 298], the half-inhibitory concentration (IC50) is 300 nM at human HIF-PHD3 and 29 nM against human HIF-PHD2.

Turning to `C[C@@H](c1cccc(Cl)c1)n1ncc2nc(-n3cc(C(=O)O)cn3)nc(O)c21` [Example 253], the figures for the concentration for half-maximal inhibition (IC50) against human HIF-PHD3 and on human HIF-PHD2 were 600 nM and 71 nM, respectively.

Take `Cc1nn([C@@H](C)c2ccc(F)cc2F)c2c(O)nc(-n3cc(C(=O)O)cn3)nc12` [Example 451]: the results for the half-maximal inhibitory concentration (IC50) at human HIF-PHD3 and against human HIF-PHD2 were 840 nM and 91 nM, respectively.

For `CCCC(CCC)n1ncc2nc(-n3cc(C(=O)O)cn3)nc(O)c21` [Example 488], the half-maximal inhibitory concentration (IC50) at human HIF-PHD3 came out at 840 nM; at human HIF-PHD2 it was 59 nM.

As for `C[C@@H](C1CCN(c2ccc(OC(F)(F)F)cc2)CC1)n1ncc2nc(-n3cc(C(=O)O)cn3)nc(O)c21` [Example 433], the concentration for half-maximal inhibition (IC50) was 540 nM against human HIF-PHD3 and 31 nM on human HIF-PHD2.

On to `CC(C)C(c1ccc(F)c(F)c1)n1ncc2nc(-n3cc(C(=O)O)cn3)nc(O)c21` (single isomer, unassigned) [Example 359], for which the 50% inhibitory concentration (IC50) at human HIF-PHD3 came out at 340 nM; against human HIF-PHD2, 23 nM.

With `O=C(O)c1cnn(-c2nc(O)c3c(cnn3C[C@H]3CCN(c4ccc(Cl)cc4)C3)n2)c1` [Example 428], the IC50 against human HIF-PHD3 was determined as 230 nM; against human HIF-PHD2 it was 21 nM.

As to `Cc1ccc(C(C2CC2)n2ncc3nc(-n4cc(C(=O)O)cn4)nc(O)c32)cc1` (single isomer, unassigned) [Example 369], the IC50 on human HIF-PHD3 was determined as 400 nM; at human HIF-PHD2, 35 nM.

Values taken from US20150239889A1, “PYRAZOLOPYRIMIDINE COMPOUND” (MITSUBISHI TANABE PHARMA CORPORATION, priority 2012, published 2015).
